{"source": "patent US9968573B2", "about": "“Endoprosthesis having and active substance coating” (HEMOTEQ AG, priority 2011, dated 2018)", "key": {"[1]": {"tested_on": "L929 cell line", "assay": "In vitro cytotoxicity, growth inhibition of L929 cell line", "type": "cell-based", "settings": "68-72 h", "method": "The cytotoxic effect was tested on the growth inhibition of L929 cell line after incubation period of 68-72 h for 6 different concentrations according to relevant, valid DIN and ISO standards. DMEM 10% FCS was used as a negative control and the positive control was 5% DMSO in DMEM 10% FCS"}, "[2]": {"tested_on": "Staphylococcus aureus (ATCC 6538)", "settings": "Ti-Cylinder, rough surface", "method": "Then, the minimum inhibitory concentration (MIC) for Staphylococcus aureus (ATCC 6538) is determined over a serial dilution series according to DIN 58940 (Part 7)."}, "[3]": {"tested_on": "L929 cells", "settings": "Ti-Cylinder, rough surface, 24 h extract, L929 68 h", "method": "This allows a conclusion on the proliferation of the cells during incubation."}, "[4]": {"tested_on": "partially resistant Staphylococcus aureus strains", "settings": "conversion of literature MIC to gentamicin pantothenate per cm^2", "procedure": "For this purpose, coarse-blasted titanium cylinders were coated by pipetting with different amounts of ethanolic gentamicin-5-pantothenate solution and after drying the coating mass was determined by weighing. The coated titanium tubes were then γ-sterilized.\nApproximate values for the upper limit and lower limit of the amount of coating on the test specimens were derived using data already known to cytotoxicity of gentamicin as a pure substance. […] The upper limit of the samples was determined on the basis of model calculations in combination with experimentally specifically determined data of cytotoxicity of gentamicin sulfate."}, "[5]": {"tested_on": "partially resistant Staphylococcus aureus strains", "settings": "gentamicin as a pure substance (Alt et al., 2004); cited from earlier work"}}, "note": "Read-outs that look alike come from different tables or passages of the source."}
{"compound": "gentamicin sulfate", "values": [{"measurement": "GI (growth inhibition of the cell line L929)", "setting": "[1]; c 0.3 mg/mL, n = 3", "value": 4, "unit": "%"}, {"measurement": "GI (growth inhibition of the cell line L929)", "setting": "[1]; c 0.6 mg/mL, n = 3", "value": 8, "unit": "%"}, {"measurement": "GI (growth inhibition of the cell line L929)", "setting": "[1]; c 1.2 mg/mL, n = 3", "value": 12, "unit": "%"}, {"measurement": "GI (growth inhibition of the cell line L929)", "setting": "[1]; c 1.8 mg/mL, n = 3", "value": 12, "unit": "%"}, {"measurement": "GI (growth inhibition of the cell line L929)", "setting": "[1]; c 2.4 mg/mL, n = 3", "value": 22, "unit": "%"}, {"measurement": "GI (growth inhibition of the cell line L929)", "setting": "[1]; c 3.0 mg/mL, n = 3", "value": 29, "unit": "%"}]}
{"compound": "O=C(O)c1ccccc1O", "note": "[salicylic acid]", "values": [{"measurement": "GI (growth inhibition of the cell line L929)", "setting": "[1]; c 0.1 mg/mL, n = 3", "value": 16, "unit": "%"}, {"measurement": "GI (growth inhibition of the cell line L929)", "setting": "[1]; c 0.3 mg/mL, n = 3", "value": 19, "unit": "%"}, {"measurement": "GI (growth inhibition of the cell line L929)", "setting": "[1]; c 0.5 mg/mL, n = 3", "value": 42, "unit": "%"}, {"measurement": "GI (growth inhibition of the cell line L929)", "setting": "[1]; c 0.8 mg/mL, n = 3", "value": 54, "unit": "%"}, {"measurement": "GI (growth inhibition of the cell line L929)", "setting": "[1]; c 1.1 mg/mL, n = 3", "value": 67, "unit": "%"}, {"measurement": "GI (growth inhibition of the cell line L929)", "setting": "[1]; c 1.3 mg/mL, n = 3", "value": 74, "unit": "%"}]}
{"compound": "O=C(O)c1ccccc1", "note": "[benzoic acid]", "values": [{"measurement": "GI (growth inhibition of the cell line L929)", "setting": "[1]; c 0.3 mg/mL, n = 3", "value": 10, "unit": "%"}, {"measurement": "GI (growth inhibition of the cell line L929)", "setting": "[1]; c 0.6 mg/mL, n = 3", "value": 20, "unit": "%"}, {"measurement": "GI (growth inhibition of the cell line L929)", "setting": "[1]; c 0.9 mg/mL, n = 3", "value": 35, "unit": "%"}, {"measurement": "GI (growth inhibition of the cell line L929)", "setting": "[1]; c 1.5 mg/mL, n = 3", "value": 50, "unit": "%"}, {"measurement": "GI (growth inhibition of the cell line L929)", "setting": "[1]; c 2.1 mg/mL, n = 3", "value": 64, "unit": "%"}, {"measurement": "GI (growth inhibition of the cell line L929)", "setting": "[1]; c 3.0 mg/mL, n = 3", "value": 77, "unit": "%"}]}
{"compound": "Gentamicin-Penta-Pantothenate", "values": [{"measurement": "calculated MIC", "setting": "[2]; 20 μg/cm^2", "value": 50, "unit": "µg/mL"}, {"measurement": "calculated MIC", "setting": "[2]; 50 μg/cm^2", "value": 62.5, "unit": "µg/mL"}, {"measurement": "calculated MIC", "setting": "[2]; 100 μg/cm^2", "value": 31.25, "unit": "µg/mL"}, {"measurement": "Growth Inhibition", "setting": "[3]; 700 μg/cm^2", "value": 23, "unit": "%"}, {"measurement": "Growth Inhibition", "setting": "[3]; 800 μg/cm^2", "value": 18, "unit": "%"}, {"measurement": "Growth Inhibition", "setting": "[3]; 900 μg/cm^2", "value": 20, "unit": "%"}, {"measurement": "mathematically required minimum dose (lower limit)", "setting": "[4]", "value": 28, "unit": "μg/cm^2"}]}
{"compound": "calcium pantothenate [Ca pantothenate]", "values": [{"measurement": "GI (growth inhibition of the cell line L929)", "setting": "[1]; c 0.3 mg/mL, n = 3", "value": 0, "unit": "%"}, {"measurement": "GI (growth inhibition of the cell line L929)", "setting": "[1]; c 0.6 mg/mL, n = 3", "value": 0, "unit": "%"}, {"measurement": "GI (growth inhibition of the cell line L929)", "setting": "[1]; c 1.2 mg/mL, n = 3", "value": 4, "unit": "%"}, {"measurement": "GI (growth inhibition of the cell line L929)", "setting": "[1]; c 1.8 mg/mL, n = 3", "value": 7, "unit": "%"}, {"measurement": "GI (growth inhibition of the cell line L929)", "setting": "[1]; c 2.4 mg/mL, n = 3", "value": 1, "unit": "%"}, {"measurement": "GI (growth inhibition of the cell line L929)", "setting": "[1]; c 3.0 mg/mL, n = 3", "value": 2, "unit": "%"}]}
{"compound": "gentamicin", "values": [{"measurement": "minimum inhibitory concentration", "setting": "[5]", "value": 64, "unit": "µg/mL"}]}
{"compound": "CCCCCCCCCCCCCCCC(=O)O", "note": "[palmitic acid]", "values": [{"measurement": "GI (growth inhibition of the cell line L929)", "setting": "[1]; c 0.005 mg/mL, n = 3, solvent 0.5% ethanol", "value": 2, "unit": "%"}, {"measurement": "GI (growth inhibition of the cell line L929)", "setting": "[1]; c 0.01 mg/mL, n = 3, solvent 0.5% ethanol", "value": 5, "unit": "%"}, {"measurement": "GI (growth inhibition of the cell line L929)", "setting": "[1]; c 0.02 mg/mL, n = 3, solvent 0.5% ethanol", "value": 8, "unit": "%"}, {"measurement": "GI (growth inhibition of the cell line L929)", "setting": "[1]; c 0.03 mg/mL, n = 3, solvent 0.5% ethanol", "value": 17, "unit": "%"}, {"measurement": "GI (growth inhibition of the cell line L929)", "setting": "[1]; c 0.04 mg/mL, n = 3, solvent 0.5% ethanol", "value": 22, "unit": "%"}, {"measurement": "GI (growth inhibition of the cell line L929)", "setting": "[1]; c 0.05 mg/mL, n = 3, solvent 0.5% ethanol", "value": 30, "unit": "%"}]}
